Entries after “also recorded” stand apart in the source; their conditions may differ.
How the values were obtained:
Format in all cases: cell-based
[1] = system: Influenza A USSR/90(H1 N1); experiment: Anti-Influenza Activity (Hemadsorption Assay), Influenza A USSR/90; details: for inhibition: Influenza A virus, read-out: % Inhibition of Hemadsorption Foci
Method: (§1) Upon infection of a monolayer of tissue culture cells by influenza virus, the cell surface is altered so that guinea pig erythrocytes can be adsorbed to the cell surface. The number of foci of adsorbed cells (hemadsorption foci forming units HAFFU) is a quantitative measure of infectivity. The method is as follows.
The monolayers were subcultured in the following manner: The medium was poured off, and the monolayer washed two times with approximately 50 ml per wash of calcium and magnesium free phosphate buffered saline (PBS), (GIBCO #419) at a pH of 7.2. One ml of trypsin-EDTA solution (GIBCO #530L) containing 0.5 g trypsin (1:250) and 2.0 g EDTA/liter of Modified Puck's Saline A was added at 37° C. to each flask and dispersed over the monolayer with gentle shaking. The flasks were then placed in an incubator at 37° C. for approximately 3-5 minutes depending on the time required to dislodge the cells. Occasional shaking was required. Ten ml of planting medium was added to each flask and the cells dispersed by aspirating and expelling the suspension from the pipette. The contents of a series of flasks were pooled and the cells in the suspension were diluted with planting medium to 7-8.5×10^4 cells/ml. The planting medium consisted of the following composition: Minimum Essential Medium Eagles (MEM) with Earle's salts and HEPES buffer (GIBCO #236) supplemented by adding the following substances as specified to 87 ml of MEM:
The following day the medium was removed and replaced with fresh planting medium. The monolayers were used for experimentation when they reached a condition in which they were almost confluent (approximately 3-4 days).
(§2) When the Linbro tray HeLa cell cultures were ready for experimentation (see cells), the medium was decanted and 1 ml of maintenance medium (MEM with FCS reduced to 3%) containing the compound being tested at a given concentration was added to 4 replicate cultures within a tray.
(§3) A series of different drug concentrations ranging from 2.3 to 150 μg/ml were used. Maintenance medium alone was used for control cultures. After the administration of drug and control medium, 0.1 ml of the diluted viral suspension was added to experimental groups and infected control cultures. Saline alone was added to non-infected control cultures. The Linbro trays were then incubated at 37° C. for 18 hours, after which media in all groups was aspirated. Each culture was washed once with PBS. The saline was aspirated and 0.5 ml of a 0.4% v/v guinea pig red blood cell suspension in PBS was added to each culture well. The cultures remained at room temperature for 30 minutes after which the medium was decanted and culture washed […] with PBS to remove all but the specifically bound red cells. After the third wash, maintenance medium was added to all cultures.
(§4) A Howard Micrometer eyepiece (C8385) was inserted within the ocular of a Nikon inverted phase contrast microscope. Each culture was scanned with a 4× low paper objective and direct counts of hemadsorbed red cells were counted using the eyepiece grid as a field marker. Partial or complete fields were counted per experimental group depending on the resulting number and density of hemadsorbed cells in the infected control cultures. Magnification of 60× or 150× were chosen to obtain the best conditions for enumerating the hemadsorbed cells. Field factors were calculated for counting hemadsorption at 60× and 150×. At 60× magnification, total field count was calculated using a multiplication factor of 55.5. At 150× magnification the multiplication factor was 273. The multiplication factors of 55.5 and 273 represent the total number of fields at 60× and 150× magnifications, respectively. The number of fields counted ranged from 3 to 5 per well with 3 to 4 wells per treatment group employed (see raw data tables in results section for number of fields examined). Means and standard errors were calculated and the data was evaluated using student's t-test analysis.

[2] = system: Influenza A Swine 1976 (Hlsw -N1); experiment: Inhibition of influenza virus replication, Swine 1976
Method: as §1, §2, §3, §4

influenza virus = experiment: Anti-influenza activity (summary); details: for number of different strains of influenza virus inhibited: concentrations ranging from 1-150 μg/ml
immune response = experiment: Immunomodulation / immune response potentiation (summary); details: for potentiation of the immune response: three test systems of Table 4; for DIP.PAcBA potentiation of Immunpotentiation: DIP.PAcBA salt vs parent compound
Description: (§5) The following three assay procedures are used to evaluate the ability of the test substances to modulate the activity of several classes of cells in the immune system. In these systems it is possible to identify both immunopotentiating activity (evidence by an enhancement of the parameter examined) as well as immunosuppressant activity (evidenced by an inhibition of the parameter examined).
Table 4 above presents the results of an evaluation of a number of these subject compounds as potentiators of the immune response. Three different test systems were used. The first involves a measure of the ability of the test compound to enhance the ability of mouse lymphocytes to proliferate in response to a plant mitogen (Con A). The second involves measuring the ability of the test compounds to enhance human lymphocyte proliferation in response to a second plant mitogen (PHA). The third system measures the ability of these test substances to enhance macrophage proliferation in response to a natural lymphokine (MMF, Macrophage Mitogenic Factor).

Mouse spleen cells = experiment: Mitogen Induced (Con A) Mouse Lymphocyte Proliferation
Description: as §5
1. Mitogen--Induced Mouse Spleen Cell Assay--Mouse spleen cells contain a population of both B and T lymphocytes which can be stimulated by a number of foreign substances (e.g., plant mitogens such as Con A) to proliferate. This enhanced proliferation is an indication of enhanced cell mediated immunity. The method below describes the system used to evaluate test substances as immunopotentiators.
Concanavalin A (Calbiochem, La Jolla, Calif.), Lot #210073, lyophilized in NaCl, was prepared first as a 1% solution and diluted as a 2× concentration for each dilution (0.5, 1.0, 2.5 μg/ml).
Six to eight week old male Balb/c and C3 H inbred mice were obtained from the following sources: Flow Research Animals, Inc., Dublin, Va.; Charles River Breeding Laboratories, Wilmington, Mass.; Laboratory Supply Company, Indianapolis, Ind.; and Lionel Strong Foundation, San Diego, Calif.
Three to five mice were sacrificed by cervical dislocation and the spleens aseptically removed. Pooled spleens were minced and teased with sterile forceps; then strained through a double layer of nylon mesh. The cell suspension was washed once with 15 ml of RPMI 1640 supplemented with 5% fetal calf serum and antibiotics. Cells were cultured at a concentration of 10^6 cells/0.1 ml/well in micro-plates. Cultures were incubated in the presence or absence of mitogen in a humidified atmosphere containing 5% CO2 for 48 hours. The test compound was added to cultures at various concentrations concommitant with mitogen.
Proliferation was assayed by the degree of incorporation of 1.0 μCi of [^3 H] thymidine over an 18 hour incubation period. Cultures were harvested by a MASH unit (Otto Hiller Co., Madison, Wisconsin) and thymidine incorporation was assayed by liquid scintillation spectrometry. Cultures were performed in triplicate and data are expressed as means plus or minus the strandard error of the experimental means. Drug stimulation indices over control values were also calculated and portrayed graphically.

Compound: CCCCCC[C@H]([C@H](C)O)n1cnc2c(=O)[nH]cnc21 (relative stereo) [NPT 15392, Erythro-9-(2-Hydroxy-3-Nonyl)Hypoxanthine]
- % Inhibition of Hemadsorption Foci ([1]; Conc. <10 μg/ml, listed as 15392): 86%
- inhibition ([1]; Conc. 10-100 μg/ml): 100%
- % Inhibition ([2]; 0.1-1.0 μg/ml, listed as 15392): 30-50%
- % Inhibition ([2]; 10-100 μg/ml): > 70%
- % Inhibition ([2]; >100 μg/ml): > 70%
- anti-influenza activity by themselves (influenza virus): significant anti-influenza activity
- number of different strains of influenza virus inhibited (influenza virus): at least 4 different strains
- potentiation of the immune response (immune response): Significant potentiation

Compound: CCCCCC[C@H]([C@H](C)O)n1cnc2c(=O)[nH]cnc21 (relative stereo) [NPT 15410]
- % Inhibition of Hemadsorption Foci ([1]; Conc. 10-100 μg/ml): 96%
- % Inhibition of Hemadsorption Foci ([1]; Conc. <10 μg/ml, listed as 15410): 58%
- % Inhibition of Hemadsorption Foci ([1]; Conc. >100 μg/ml): 96%
- % Inhibition ([2]; 0.1-1.0 μg/ml, listed as 15410): 50-70%
- % Inhibition ([2]; 1.0-10 μg/ml): 30-50%
- Maximum Percent Change, Mitogen Induced (Con A) Mouse Lymph. Prolif. (Mouse spleen cells; 1.0-10): 40%
- Maximum Percent Change, Mitogen Induced (Con A) Mouse Lymph. Prolif. (Mouse spleen cells; 10-100): 40%
- Maximum Percent Change, Mitogen Induced (Con A) Mouse Lymph. Prolif. (Mouse spleen cells; .01-1.0): 140%
- DIP.PAcBA potentiation of Anti-Influenza activity (influenza virus): does not potentiate the anti-influenza activity; also recorded: Both are equally active
- DIP.PAcBA potentiation of Immunpotentiation (immune response): Yes
- potentiation of the immune response (immune response): Significant potentiation

Compound: CCCCCCC(CO)n1cnc2c(=O)[nH]cnc21 (stereo not drawn) [NPT 15417]
- inhibition ([1]; Conc. 10-100 μg/ml): 58%
- % Inhibition ([2]; 10-100 μg/ml): > 70%
- Maximum Percent Change, Mitogen Induced (Con A) Mouse Lymph. Prolif. (Mouse spleen cells; 1.0-10, listed as 15417): 0%
- Maximum Percent Change, Mitogen Induced (Con A) Mouse Lymph. Prolif. (Mouse spleen cells; 10-100, listed as 15417): 0%
- Maximum Percent Change, Mitogen Induced (Con A) Mouse Lymph. Prolif. (Mouse spleen cells; .01-1.0, listed as 15417): 0%
- anti-influenza activity by themselves (influenza virus): significant anti-influenza activity
- number of different strains of influenza virus inhibited (influenza virus): at least 4 different strains

Compound: CCCCCCC(CO)n1cnc2c(=O)[nH]cnc21 (stereo not drawn) [NPT 15418]
- % Inhibition of Hemadsorption Foci ([1]; Conc. 10-100 μg/ml): 46%
- % Inhibition of Hemadsorption Foci ([1]; Conc. <10 μg/ml): 16%
- % Inhibition of Hemadsorption Foci ([1]; Conc. >100 μg/ml): 52%
- % Inhibition ([2]; >100 μg/ml): > 70%
- Maximum Percent Change, Mitogen Induced (Con A) Mouse Lymph. Prolif. (Mouse spleen cells; 1.0-10, listed as 15418): 73%
- Maximum Percent Change, Mitogen Induced (Con A) Mouse Lymph. Prolif. (Mouse spleen cells; 10-100, listed as 15418): 26%
- Maximum Percent Change, Mitogen Induced (Con A) Mouse Lymph. Prolif. (Mouse spleen cells; .01-1.0, listed as 15418): 41%
- DIP.PAcBA potentiation of Anti-Influenza activity (influenza virus): does potentiate the anti-influenza activity and Yes
- DIP.PAcBA potentiation of Immunpotentiation (immune response): Yes
- potentiation of the immune response (immune response): Significant potentiation

Source: patent US4221909A, “P-Acetamidobenzoic acid salts of 9-(hydroxyalkyl) purines” (Sloan-Kettering Institute for Cancer Research, priority 1978, dated 1980)
